Results from the kinase profiling compilation of Christmann-Franck et al. (2016).

Assays:
Experiment in all cases: KINOMEscan competition binding
CDK4 CCND1 (human) = CDK4 CCND1 (human) (UniProt P11802+P24385); details: compound 1.0 µM
CHEK1 (human) = CHEK1 (human) (UniProt O14757); details: compound 1.0 µM
CLK1 (human) = CLK1 (human) (UniProt P49759); details: compound 1.0 µM
CSNK1D (human) = CSNK1D (human) (UniProt P48730); details: compound 1.0 µM
CSNK2A2 (human) = CSNK2A2 (human) (UniProt P19784); details: compound 1.0 µM
DCLK1 (human) = DCLK1 (human) (UniProt O15075); details: compound 1.0 µM
DDR2 (human) = DDR2 (human) (UniProt Q16832); details: compound 1.0 µM
[1] = test system: EGFR (human), P00533 [747-751 del / S ins]; details: compound 1.0 µM
EPHA3 (human) = EPHA3 (human) (UniProt P29320); details: compound 1.0 µM
EPHA7 (human) = EPHA7 (human) (UniProt Q15375); details: compound 1.0 µM
EPHB4 (human) = EPHB4 (human) (UniProt P54760); details: compound 1.0 µM
ERN1 (human) = ERN1 (human) (UniProt O75460); details: compound 1.0 µM
GRK7 (human) = GRK7 (human) (UniProt Q8WTQ7); details: compound 1.0 µM
IGF1R (human) = IGF1R (human) (UniProt P08069); details: compound 1.0 µM
[2] = test system: KIT (human), P10721 [A829P]; details: compound 1.0 µM
[3] = test system: KIT (human), P10721 [D816H]; details: compound 1.0 µM
LATS1 (human) = LATS1 (human) (UniProt O95835); details: compound 1.0 µM
LATS2 (human) = LATS2 (human) (UniProt Q9NRM7); details: compound 1.0 µM
MAP2K2 (human) = MAP2K2 (human) (UniProt P36507); details: compound 1.0 µM
MAP3K13 (human) = MAP3K13 (human) (UniProt O43283); details: compound 1.0 µM
MAP3K3 (human) = MAP3K3 (human) (UniProt Q99759); details: compound 1.0 µM
MAP3K5 (human) = MAP3K5 (human) (UniProt Q99683); details: compound 1.0 µM
MAP3K9 (human) = MAP3K9 (human) (UniProt P80192); details: compound 1.0 µM
MAP4K4 (human) = MAP4K4 (human) (UniProt O95819); details: compound 1.0 µM
MAPK4 (human) = MAPK4 (human) (UniProt P31152); details: compound 1.0 µM
MAPK6 (human) = MAPK6 (human) (UniProt Q16659); details: for kinase still bound, per cent of control: compound 1.0 µM
MST1R (human) = MST1R (human) (UniProt Q04912); details: compound 1.0 µM
NTRK2 (human) = NTRK2 (human) (UniProt Q16620); details: compound 1.0 µM
PDPK1 (human) = PDPK1 (human) (UniProt O15530); details: compound 1.0 µM
[4] = test system: PIK3CA (human), P42336 [E542K]; details: compound 1.0 µM
PIP4K2B (human) = PIP4K2B (human) (UniProt P78356); details: compound 1.0 µM
PKN3 (M.tuberculosis) = PKN3 (M.tuberculosis) (UniProt Q6P5Z2); details: compound 1.0 µM
PLK1 (human) = PLK1 (human) (UniProt P53350); details: compound 1.0 µM
PRKCE (human) = PRKCE (human) (UniProt Q02156); details: compound 1.0 µM
RIPK4 (human) = RIPK4 (human) (UniProt P57078); details: compound 1.0 µM
RPS6KA1 KD1 (human) = RPS6KA1 KD1 (human) (UniProt Q15418); details: compound 1.0 µM
SRMS (human) = SRMS (human) (UniProt Q9H3Y6); details: compound 1.0 µM
TESK1 (human) = TESK1 (human) (UniProt Q15569); details: compound 1.0 µM
TNK1 (human) = TNK1 (human) (UniProt Q13470); details: compound 1.0 µM
TNK2 (human) = TNK2 (human) (UniProt Q07912); details: compound 1.0 µM
[5] = molecular target: TYK2 JH1 catalytic (human) (UniProt P29597); details: compound 1.0 µM
YSK4 (human) = YSK4 (human) (UniProt Q56UN5); details: for kinase still bound, per cent of control: compound 1.0 µM
YSK4 (human), sequence (Q56UN5 whole entry, looked up): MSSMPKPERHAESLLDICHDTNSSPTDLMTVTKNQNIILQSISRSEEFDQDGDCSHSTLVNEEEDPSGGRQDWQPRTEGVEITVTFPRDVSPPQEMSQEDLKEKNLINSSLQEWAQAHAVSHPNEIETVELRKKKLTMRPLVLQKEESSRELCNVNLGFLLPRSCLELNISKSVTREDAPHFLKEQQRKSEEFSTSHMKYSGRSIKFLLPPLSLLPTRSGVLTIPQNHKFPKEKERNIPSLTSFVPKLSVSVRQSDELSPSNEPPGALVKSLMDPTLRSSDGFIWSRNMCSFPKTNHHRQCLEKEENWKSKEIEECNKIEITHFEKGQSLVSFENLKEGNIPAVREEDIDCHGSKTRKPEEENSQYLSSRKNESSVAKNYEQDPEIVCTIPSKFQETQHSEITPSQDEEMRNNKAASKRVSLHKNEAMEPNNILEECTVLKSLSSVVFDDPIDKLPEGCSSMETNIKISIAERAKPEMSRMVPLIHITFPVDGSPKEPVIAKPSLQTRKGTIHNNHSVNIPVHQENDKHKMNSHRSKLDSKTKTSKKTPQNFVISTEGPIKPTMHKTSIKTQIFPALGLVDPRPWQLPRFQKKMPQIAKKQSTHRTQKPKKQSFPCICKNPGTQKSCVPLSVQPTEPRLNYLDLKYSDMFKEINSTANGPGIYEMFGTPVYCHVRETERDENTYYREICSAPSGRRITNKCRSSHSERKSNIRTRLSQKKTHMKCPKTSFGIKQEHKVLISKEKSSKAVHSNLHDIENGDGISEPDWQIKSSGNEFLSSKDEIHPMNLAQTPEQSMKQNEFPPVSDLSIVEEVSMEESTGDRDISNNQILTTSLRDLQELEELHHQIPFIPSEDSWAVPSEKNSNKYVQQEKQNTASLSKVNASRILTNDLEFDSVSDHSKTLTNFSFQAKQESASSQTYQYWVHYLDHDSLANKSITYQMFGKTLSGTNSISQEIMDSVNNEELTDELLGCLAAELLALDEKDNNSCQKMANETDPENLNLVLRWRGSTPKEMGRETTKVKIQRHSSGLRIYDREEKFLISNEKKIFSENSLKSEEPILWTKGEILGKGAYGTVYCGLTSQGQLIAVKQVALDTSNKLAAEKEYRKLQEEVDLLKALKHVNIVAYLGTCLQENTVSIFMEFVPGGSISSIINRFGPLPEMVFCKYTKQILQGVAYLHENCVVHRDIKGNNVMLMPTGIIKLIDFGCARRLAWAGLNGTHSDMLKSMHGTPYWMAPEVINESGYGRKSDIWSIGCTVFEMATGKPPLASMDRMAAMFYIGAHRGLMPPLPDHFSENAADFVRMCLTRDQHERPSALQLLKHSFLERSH

MAPK6 (human), sequence (Q16659 whole entry, looked up): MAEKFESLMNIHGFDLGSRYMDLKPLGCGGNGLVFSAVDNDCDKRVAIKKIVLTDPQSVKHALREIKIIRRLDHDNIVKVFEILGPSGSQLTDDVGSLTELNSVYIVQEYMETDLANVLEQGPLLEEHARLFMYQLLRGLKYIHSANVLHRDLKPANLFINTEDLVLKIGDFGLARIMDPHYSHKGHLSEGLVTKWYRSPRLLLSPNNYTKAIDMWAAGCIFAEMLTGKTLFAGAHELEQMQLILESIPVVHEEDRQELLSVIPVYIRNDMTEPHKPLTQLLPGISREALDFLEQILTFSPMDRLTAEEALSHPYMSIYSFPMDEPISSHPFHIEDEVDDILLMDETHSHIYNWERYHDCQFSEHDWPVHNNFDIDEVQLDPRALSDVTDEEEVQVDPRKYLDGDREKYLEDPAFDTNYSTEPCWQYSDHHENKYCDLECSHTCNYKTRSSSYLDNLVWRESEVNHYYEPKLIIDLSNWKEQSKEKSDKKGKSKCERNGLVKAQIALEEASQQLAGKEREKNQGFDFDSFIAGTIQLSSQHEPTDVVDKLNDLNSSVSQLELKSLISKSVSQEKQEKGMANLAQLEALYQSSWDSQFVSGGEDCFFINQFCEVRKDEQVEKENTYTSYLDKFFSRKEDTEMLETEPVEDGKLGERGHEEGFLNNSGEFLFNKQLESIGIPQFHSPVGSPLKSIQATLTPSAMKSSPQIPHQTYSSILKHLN
CDK4 CCND1 (human), sequence (P11802 whole entry, looked up): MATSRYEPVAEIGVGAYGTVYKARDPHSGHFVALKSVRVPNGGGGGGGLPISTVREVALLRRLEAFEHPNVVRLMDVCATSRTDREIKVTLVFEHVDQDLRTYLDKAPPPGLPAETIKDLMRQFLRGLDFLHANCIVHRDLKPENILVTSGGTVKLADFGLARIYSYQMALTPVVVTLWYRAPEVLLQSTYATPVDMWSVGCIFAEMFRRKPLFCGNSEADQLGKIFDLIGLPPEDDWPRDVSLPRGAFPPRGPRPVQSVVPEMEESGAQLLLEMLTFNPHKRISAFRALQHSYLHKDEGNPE
CDK4 CCND1 (human), sequence (P24385 whole entry, looked up): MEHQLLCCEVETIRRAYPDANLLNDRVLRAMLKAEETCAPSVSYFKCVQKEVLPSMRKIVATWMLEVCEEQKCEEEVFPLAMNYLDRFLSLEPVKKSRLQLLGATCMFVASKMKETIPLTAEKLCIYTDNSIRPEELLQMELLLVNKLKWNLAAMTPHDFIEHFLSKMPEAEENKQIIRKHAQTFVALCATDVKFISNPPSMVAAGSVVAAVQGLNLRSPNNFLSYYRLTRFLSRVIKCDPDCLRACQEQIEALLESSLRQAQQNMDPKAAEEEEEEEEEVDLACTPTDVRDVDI
IGF1R (human), sequence (P08069 whole entry, looked up): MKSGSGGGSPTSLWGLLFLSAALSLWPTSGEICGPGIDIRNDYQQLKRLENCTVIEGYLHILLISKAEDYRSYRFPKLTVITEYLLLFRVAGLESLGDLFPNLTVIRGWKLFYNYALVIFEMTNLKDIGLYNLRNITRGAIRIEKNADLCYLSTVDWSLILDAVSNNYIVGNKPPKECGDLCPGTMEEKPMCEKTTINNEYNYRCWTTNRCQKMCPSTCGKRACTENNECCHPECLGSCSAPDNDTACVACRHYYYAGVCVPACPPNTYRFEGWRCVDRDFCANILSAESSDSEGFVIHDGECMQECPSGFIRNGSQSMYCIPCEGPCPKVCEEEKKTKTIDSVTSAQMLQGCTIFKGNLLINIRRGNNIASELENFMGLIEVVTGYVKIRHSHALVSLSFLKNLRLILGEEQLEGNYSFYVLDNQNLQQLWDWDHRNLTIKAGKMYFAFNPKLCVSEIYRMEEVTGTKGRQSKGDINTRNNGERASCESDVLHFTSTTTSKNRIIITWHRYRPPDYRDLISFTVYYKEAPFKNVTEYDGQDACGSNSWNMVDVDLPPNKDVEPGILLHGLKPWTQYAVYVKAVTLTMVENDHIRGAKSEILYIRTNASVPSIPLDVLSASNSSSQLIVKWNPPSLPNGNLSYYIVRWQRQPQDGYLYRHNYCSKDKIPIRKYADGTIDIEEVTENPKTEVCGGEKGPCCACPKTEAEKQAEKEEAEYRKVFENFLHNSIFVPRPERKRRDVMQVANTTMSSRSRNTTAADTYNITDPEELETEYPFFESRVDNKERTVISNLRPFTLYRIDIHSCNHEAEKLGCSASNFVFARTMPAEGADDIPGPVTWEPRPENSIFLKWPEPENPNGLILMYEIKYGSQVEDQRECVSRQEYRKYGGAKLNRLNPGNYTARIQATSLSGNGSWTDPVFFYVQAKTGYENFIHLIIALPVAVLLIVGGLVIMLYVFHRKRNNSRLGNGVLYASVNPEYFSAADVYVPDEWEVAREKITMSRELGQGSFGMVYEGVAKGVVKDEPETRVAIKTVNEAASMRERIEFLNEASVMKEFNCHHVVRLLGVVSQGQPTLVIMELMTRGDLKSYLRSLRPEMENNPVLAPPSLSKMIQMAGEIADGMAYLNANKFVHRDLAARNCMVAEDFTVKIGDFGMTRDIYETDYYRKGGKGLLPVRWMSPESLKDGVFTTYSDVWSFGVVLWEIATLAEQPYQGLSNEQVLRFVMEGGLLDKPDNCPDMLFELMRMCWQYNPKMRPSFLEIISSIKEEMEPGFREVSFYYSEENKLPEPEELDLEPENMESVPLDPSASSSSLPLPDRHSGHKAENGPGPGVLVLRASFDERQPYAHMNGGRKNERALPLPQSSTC
PDPK1 (human), sequence (O15530 whole entry, looked up): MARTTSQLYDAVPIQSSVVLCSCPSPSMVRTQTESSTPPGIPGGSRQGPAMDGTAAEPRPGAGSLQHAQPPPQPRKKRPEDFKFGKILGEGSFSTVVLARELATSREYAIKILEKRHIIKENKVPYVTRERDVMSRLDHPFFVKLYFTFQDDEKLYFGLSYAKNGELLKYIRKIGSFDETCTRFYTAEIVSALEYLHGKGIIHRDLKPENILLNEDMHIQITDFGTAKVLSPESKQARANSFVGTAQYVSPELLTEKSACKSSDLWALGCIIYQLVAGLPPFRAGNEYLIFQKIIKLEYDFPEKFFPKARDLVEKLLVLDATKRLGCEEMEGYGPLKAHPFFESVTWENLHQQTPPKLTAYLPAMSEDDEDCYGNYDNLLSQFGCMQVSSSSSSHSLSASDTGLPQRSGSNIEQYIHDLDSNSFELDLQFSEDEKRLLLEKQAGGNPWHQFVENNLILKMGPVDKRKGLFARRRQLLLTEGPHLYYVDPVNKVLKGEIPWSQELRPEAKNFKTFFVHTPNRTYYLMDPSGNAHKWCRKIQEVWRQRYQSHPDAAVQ
CSNK2A2 (human), sequence (P19784 whole entry, looked up): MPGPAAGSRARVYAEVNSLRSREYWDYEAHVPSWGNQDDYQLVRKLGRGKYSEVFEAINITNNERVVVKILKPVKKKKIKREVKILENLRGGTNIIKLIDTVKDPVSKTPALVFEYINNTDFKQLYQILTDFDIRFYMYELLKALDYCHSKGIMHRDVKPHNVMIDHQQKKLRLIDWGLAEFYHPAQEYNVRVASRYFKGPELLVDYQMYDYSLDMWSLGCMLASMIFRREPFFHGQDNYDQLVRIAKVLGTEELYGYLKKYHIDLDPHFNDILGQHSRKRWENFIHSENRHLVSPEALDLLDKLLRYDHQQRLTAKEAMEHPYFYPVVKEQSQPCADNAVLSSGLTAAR

For CN(C)C/C=C/C(=O)Nc1cccc(C(=O)Nc2ccc(Nc3nccc(/C(C#N)=C4\Nc5ccccc5S4)n3)cc2)c1, the kinase still bound, per cent of control (CDK4 CCND1 (human)) was 100%, the kinase still bound, per cent of control (CHEK1 (human)) was 100% and the kinase still bound, per cent of control (CLK1 (human)) was 42%. It also gave a kinase still bound, per cent of control (CSNK1D (human)) of 26%, a kinase still bound, per cent of control (CSNK2A2 (human)) of 8% and a kinase still bound, per cent of control (DCLK1 (human)) of 100%. For the same molecule, the kinase still bound, per cent of control (DDR2 (human)) was 100%, the kinase still bound, per cent of control [1] was 85% and the kinase still bound, per cent of control (EPHA3 (human)) was 100%. The kinase still bound, per cent of control (EPHA7 (human)) was 100%, the kinase still bound, per cent of control (EPHB4 (human)) was 100% and the kinase still bound, per cent of control (ERN1 (human)) was 100%. For the same molecule, the kinase still bound, per cent of control (GRK7 (human)) was 81%, the kinase still bound, per cent of control (IGF1R (human)) was 100% and the kinase still bound, per cent of control [2] was 100%. The kinase still bound, per cent of control [3] was 100%, the kinase still bound, per cent of control (LATS1 (human)) was 89% and the kinase still bound, per cent of control (LATS2 (human)) was 100%. It also gave a kinase still bound, per cent of control (MAP2K2 (human)) of 100%, a kinase still bound, per cent of control (MAP3K13 (human)) of 100% and a kinase still bound, per cent of control (MAP3K3 (human)) of 100%. The kinase still bound, per cent of control (MAP3K5 (human)) was 100%, the kinase still bound, per cent of control (MAP3K9 (human)) was 100% and the kinase still bound, per cent of control (MAP4K4 (human)) was 100%. For the same molecule, the kinase still bound, per cent of control (MAPK4 (human)) was 100%, the kinase still bound, per cent of control (MAPK6 (human)) was 27% and the kinase still bound, per cent of control (MST1R (human)) was 100%. It also gave a kinase still bound, per cent of control (NTRK2 (human)) of 100%, a kinase still bound, per cent of control (PDPK1 (human)) of 100% and a kinase still bound, per cent of control [4] of 100%. The kinase still bound, per cent of control (PIP4K2B (human)) was 81%, the kinase still bound, per cent of control (PKN3 (M.tuberculosis)) was 53% and the kinase still bound, per cent of control (PLK1 (human)) was 96%. For the same molecule, the kinase still bound, per cent of control (PRKCE (human)) was 100%, the kinase still bound, per cent of control (RIPK4 (human)) was 100% and the kinase still bound, per cent of control (RPS6KA1 KD1 (human)) was 100%. For the same molecule, the kinase still bound, per cent of control (SRMS (human)) was 100%, the kinase still bound, per cent of control (TESK1 (human)) was 100% and the kinase still bound, per cent of control (TNK1 (human)) was 15%. For the same molecule, the kinase still bound, per cent of control (TNK2 (human)) was 70%, the kinase still bound, per cent of control [5] was 72% and the kinase still bound, per cent of control (YSK4 (human)) was 59%.

CN(C)C/C=C/C(=O)Nc1cccc(C(=O)Nc2ccc(Nc3nccc(-c4cccnc4)n3)cc2)c1 gave a kinase still bound, per cent of control (CDK4 CCND1 (human)) of 61%, a kinase still bound, per cent of control (CHEK1 (human)) of 100% and a kinase still bound, per cent of control (CLK1 (human)) of 12%. For the same molecule, the kinase still bound, per cent of control (CSNK1D (human)) was 5.6%, the kinase still bound, per cent of control (CSNK2A2 (human)) was 13% and the kinase still bound, per cent of control (DCLK1 (human)) was 96%. It also gave a kinase still bound, per cent of control (DDR2 (human)) of 53%, a kinase still bound, per cent of control [1] of 74% and a kinase still bound, per cent of control (EPHA3 (human)) of 80%. For the same molecule, the kinase still bound, per cent of control (EPHA7 (human)) was 86%, the kinase still bound, per cent of control (EPHB4 (human)) was 100% and the kinase still bound, per cent of control (ERN1 (human)) was 78%. The kinase still bound, per cent of control (GRK7 (human)) was 86%, the kinase still bound, per cent of control (IGF1R (human)) was 100% and the kinase still bound, per cent of control [2] was 78%. It also gave a kinase still bound, per cent of control [3] of 42%, a kinase still bound, per cent of control (LATS1 (human)) of 100% and a kinase still bound, per cent of control (LATS2 (human)) of 73%. It also gave a kinase still bound, per cent of control (MAP2K2 (human)) of 58%, a kinase still bound, per cent of control (MAP3K13 (human)) of 100% and a kinase still bound, per cent of control (MAP3K3 (human)) of 77%. For the same molecule, the kinase still bound, per cent of control (MAP3K5 (human)) was 100%, the kinase still bound, per cent of control (MAP3K9 (human)) was 80% and the kinase still bound, per cent of control (MAP4K4 (human)) was 40%. It also gave a kinase still bound, per cent of control (MAPK4 (human)) of 11%, a Kd (MAPK6 (human)) of 22 nM and a kinase still bound, per cent of control (MAPK6 (human)) of 0.4%. For the same molecule, the kinase still bound, per cent of control (MST1R (human)) was 100%, the kinase still bound, per cent of control (NTRK2 (human)) was 94% and the kinase still bound, per cent of control (PDPK1 (human)) was 93%. The kinase still bound, per cent of control [4] was 82%, the kinase still bound, per cent of control (PIP4K2B (human)) was 18% and the kinase still bound, per cent of control (PKN3 (M.tuberculosis)) was 69%. For the same molecule, the kinase still bound, per cent of control (PLK1 (human)) was 100%, the kinase still bound, per cent of control (PRKCE (human)) was 61% and the kinase still bound, per cent of control (RIPK4 (human)) was 31%. It also gave a kinase still bound, per cent of control (RPS6KA1 KD1 (human)) of 100%, a kinase still bound, per cent of control (SRMS (human)) of 100% and a kinase still bound, per cent of control (TESK1 (human)) of 88%. It also gave a kinase still bound, per cent of control (TNK1 (human)) of 67%, a kinase still bound, per cent of control (TNK2 (human)) of 100% and a kinase still bound, per cent of control [5] of 16%. The Kd (YSK4 (human)) was 4.8 nM and the kinase still bound, per cent of control (YSK4 (human)) was 0.1%.
